Source: patent publication US7419979B2, “Derivatives of 6-{4-[4-(1H-indole-2-sulphonyl)-piperazin-1-carbonyl-phenyl]}pyradizin-3-one” (AstraZeneca AB, priority 2004, dated 2008)

Target: T1, human FXa (Homo sapiens, UniProt P00742)
T1 construct: human FXa, Haematologic Technologies Inc; purchased Haematologic Technologies Inc
Experiment: Measurement of Factor Xa Inhibition (chromogenic substrate method)
Type: biochemical
Conditions: inhibition of Factor Xa activity, screen a); chromogenic substrate S-2765, 40 min at 37° C.; specimen results
Experimental: a) Measurement of Factor Xa Inhibition
The FXa inhibitor potency was measured with a chromogenic substrate method, in a Plato 3300 robotic microplate processor (Rosys AG, CH-8634 Hombrechtikon, Switzerland), using 96-well, half-volume microtiter plates (Costar, Cambridge, Mass., USA; Cat No 3690). Stock solutions of test substance in DMSO (72 μL), 10 mmol/L, alternatively 1 mmol/L were diluted serially 1:3 (24+48 μL) with DMSO to obtain ten different concentrations, which were analyzed as samples in the assay, together with controls and blanks. As control sample melagatran was analysed. The dilutions of each test substance were analyzed consecutively, row-wise on the microtiter plate, with wash-cycles between substances to avoid cross-contamination. […] The final assay concentrations were: test substance 0.0068-133, respectively 0.00068-13.3 μmol/L, S-2765 0.40 mmol/L (KM=0.25 mmol/L) and FXa 0.1 nmol/L. The linear absorbance increase at 405 nm during 40 min incubation at 37° C. was used for calculation of percent inhibition for the test samples, as compared to references without inhibitor and/or enzyme. […]

T1 sequence (P00742 235-488 limits assumed): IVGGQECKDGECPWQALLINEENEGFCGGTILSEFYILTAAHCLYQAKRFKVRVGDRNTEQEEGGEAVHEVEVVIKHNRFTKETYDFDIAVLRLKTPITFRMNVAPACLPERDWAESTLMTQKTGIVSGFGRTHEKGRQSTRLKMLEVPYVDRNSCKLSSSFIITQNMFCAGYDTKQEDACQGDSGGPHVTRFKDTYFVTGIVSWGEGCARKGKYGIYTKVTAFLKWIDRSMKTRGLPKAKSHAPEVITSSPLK
T1 sequence (P00742 41-179 partner limits assumed): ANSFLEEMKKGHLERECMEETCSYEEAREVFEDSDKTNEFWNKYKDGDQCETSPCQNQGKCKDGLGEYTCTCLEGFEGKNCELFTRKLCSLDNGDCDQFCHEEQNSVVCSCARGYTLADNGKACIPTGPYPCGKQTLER

| IC50 | SMILES |
| --- | --- |
| 55 nM | CNCCn1nc(-c2ccc(C(=O)N3CCN(S(=O)(=O)c4cc5cc(Cl)ccc5[nH]4)CC3)cc2)ccc1=O [Example 3, 6-{4-[4-(5-Chloro-1H-indole-2-sulphonyl)-piperazine-1-carbonyl]-phenyl}-2-(2-methylamino-ethyl)-2H-pyridazin-3-one] |
| 38 nM | COCCOCCn1nc(-c2ccc(C(=O)N3CCN(S(=O)(=O)c4cc5cc(Cl)ccc5[nH]4)CC3)cc2)ccc1=O [Example 9, 6-{4-[4-(5-Chloro-1H-indole-2-sulphonyl)-piperazine-1-carbonyl]-phenyl}-2-[2-(2-methoxy-ethoxy)-ethyl]-2H-pyridazin-3-one] |
